Experimental data reported in patent publication US20030125234A1, “Alteration of protein stability” (priority 2001, published 2003).

Legend:
Assay type in all cases: biochemical
[1] = target: T1, yeast alcohol dehydrogenase (ADH) (Saccharomyces cerevisiae, UniProt P00330); test: ADH oxidation-induced aggregation (turbidity at 360 nm), Cu(OP)2; settings: for inhibition index: ADH 1 mg/mL, 37° C., Cu(OP)2
T1 construct: purchased Sigma
T1 sequence (P00330 2-348 limits assumed): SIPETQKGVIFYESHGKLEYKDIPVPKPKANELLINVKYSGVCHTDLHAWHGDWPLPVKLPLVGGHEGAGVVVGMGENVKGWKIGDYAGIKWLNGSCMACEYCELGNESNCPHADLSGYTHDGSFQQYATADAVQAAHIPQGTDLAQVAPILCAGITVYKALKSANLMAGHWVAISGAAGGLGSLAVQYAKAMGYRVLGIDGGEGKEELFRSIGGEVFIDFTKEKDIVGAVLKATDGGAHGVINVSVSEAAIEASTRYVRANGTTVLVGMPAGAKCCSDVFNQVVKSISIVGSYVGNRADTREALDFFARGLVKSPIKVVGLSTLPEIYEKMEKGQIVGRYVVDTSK
Method: (§1) Bovine insulin [Sigma, St. Louis, Mo., USA] was dissolved in phosphate saline (PBS) (50 mM sodium biphosphate, 100 mM sodium chloride), pH 7.0, bovine alpha-lactalbumin [Sigma] in 50 mM sodium phosphate, 100 mM sodium chloride and 2 mM EDTA, pH 6.2, chicken egg white lysozyme [Sigma] in 100 mM Tris, 1 mM EDTA, pH 8.2, human acidic fibroblast growth factor (FGF-1) in 6.2 mM sodium biphosphate, 120 mM sodium chloride, pH 7.2, porcine somatotropin (pST) [provided by Pfizer, Inc., Groton, Conn., USA] in 10 mM phosphate, pH 6. 1, human apolactoferrin (HLF) [Sigma] in 20 mM HEPES, 154 mM NaCl, pH 7.4, porcine heart citrate synthase (CS) in 40 mM HEPES, 50 mM KCl, 10 mM (NH4)2SO4 mM potassium acetate, pH 7.8, and yeast alcohol dehydrogenase (ADH) [Sigma] in pH 7.0 PBS. Selection of buffer solutions was based on an extensive series of preliminary studies to obtain appropriate insolubilization kinetics as described below.
(§2) Copper O-phenanthroline (1,10-phenanthroline) was prepared by mixing copper sulfate hexahydrate [Fisher] and o-phenanthroline [Sigma] in a 1:2 ratio. 1 M Dithiothreitol (DTT) was prepared at pH 7.0 PBS. Polyethylene glycol (M.W. 8000, Union Carbide, Danbury, Conn., USA) (PEG) was prepared at 20 mg/mL in 10 mM phosphate, pH 6.1.
(§3) The following compounds were obtained from Sigma and used without further purification: oxalic acid, sodium malonate, succinic acid, glutaric acid, adipic acid, pimelic acid, suberic acid, azelaic acid, guanidine hydrochloride, ammonium formate, beta-alanine, 4-aminobutyric acid, 5-aminovaleric acid, 6-aminocaproic acid, 7-aminoheptanoic acid, hydrazine, ethylenediamine, 1,3-diaminopropane, 1,4-diaminobutane, 1,5-diaminopentane, 1,6-diaminohexane, 1,7-diaminoheptane, Glu-Glu, Glu-Lys, Lys-Lys, diglycine, triglycine, tetraglycine, pentaglycine, and hexaglycine. […] Triglycine and tetraglycine were dissolved in pH 8.6 PBS, while pentaglycine and hexaglycine were dissolved in pH 10.6 PBS.
(§4) Each was either dissolved in pH 7.0 PBS, or pH 6.1 10 mM phosphate, and adjusted to the same pH.
(§5) Protein aggregation was monitored for 1 hour at 360 nm using an HP8453 UV-visible spectrophotometer system [Hewlett Packard, Germany]. […] Insulin (0.25 mg/mL (4.39E-5 M)) aggregation was monitored at 25° C. after addition of potential inhibitors and 20 μL of 1 M DTT (1.27E-4 M). Alpha-lactabumin (0.4 mg/mL (2.82E-5 M)) aggregation was monitored at 37° C. in the presence of 20 μL of 1 M DTT (1.27E-4 M). Lysozyme (0.4 mg/mL (2.86E-5 M)) aggregation was monitored at 25° C. in the presence of 20 μL of 1 M DTT (1.27E-4 M). FGF-1 (50 μg/mL (3.12E-6 M)) aggregation was monitored at 50° C. Porcine somatotropin (1.27 mg/mL (5.76E-5 M)) aggregation was monitored at 60° C. in the presence of PEG 8000 (20 mg/mL) which was included to enhance the protein association process through a simple exclusion volume effect. HLF (0.4 mg/mL (5.23E-6 M)) aggregation was monitored at 43° C. in the presence of 1.27E-4 M DTT. Citrate synthase (96 μg/mL (9.80E-7 M)) aggregation was monitored at45° C. ADH (1 mg/mL (7.14E-6 M)) was monitored at 37° C. following the addition of 7.76E-5 M Cu(OP)2. Aggregation was compared to protein in the absence of the particular dipolar compound. After stirring, experiments were initiated by the addition of proteins followed by stressing reagents to 1 cm pathlength cuvettes employing a seven-position thermostatted sample holder that was cycled at 30-second intervals. Alternatively, a microtiter plate reader was employed under the same conditions in a 96 well format.
(§6) All optical density (OD)360nm versus time results were exported into Excel [Microsoft] for data analysis.

[2] = target: human acidic fibroblast growth factor (FGF-1) (Homo sapiens, UniProt P05230); test: FGF-1 thermal aggregation (turbidity at 360 nm); settings: FGF-1 50 μg/mL, 50° C., standard deviation in parenthesis
Chain of human acidic fibroblast growth factor (FGF-1) (P05230 whole entry): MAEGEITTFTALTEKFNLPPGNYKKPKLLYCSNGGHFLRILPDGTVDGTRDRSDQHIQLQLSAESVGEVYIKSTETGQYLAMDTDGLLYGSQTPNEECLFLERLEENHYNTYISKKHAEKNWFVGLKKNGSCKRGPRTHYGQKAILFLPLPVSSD
Method: as §1, §3, §4, §5
(§7) All optical density (OD)360nm versus time results were exported into Excel [Microsoft] for data analysis. […] The maximum rate of change in OD versus time plots (r) was used to determine the rate of the reaction from the slope at this point.

Bovine insulin = target: T2, Bovine insulin (Bos taurus, UniProt P01317); test: Insulin aggregation (turbidity at 360 nm) induced by DTT; settings: Insulin 0.25 mg/mL, 25° C., DTT; compound 100×; standard deviation in parenthesis
T2 construct: purchased Sigma, St. Louis, Mo., USA
T2 sequence (P01317 25-54 limits assumed): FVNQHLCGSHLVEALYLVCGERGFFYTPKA
T2 sequence (P01317 85-105 limits assumed): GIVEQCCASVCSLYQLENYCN
Method: as §1, §2, §3, §4, §5, §6

[3] = target: T3, porcine heart citrate synthase (CS) (Sus scrofa, UniProt P00889); test: Citrate synthase thermal aggregation (turbidity at 360 nm); settings: for inhibition index: CS 96 μg/mL, 45° C., standard deviation in parenthesis
T3 construct: porcine heart citrate synthase (CS); from tissue; host or cells: porcine heart
T3 sequence (P00889 28-464): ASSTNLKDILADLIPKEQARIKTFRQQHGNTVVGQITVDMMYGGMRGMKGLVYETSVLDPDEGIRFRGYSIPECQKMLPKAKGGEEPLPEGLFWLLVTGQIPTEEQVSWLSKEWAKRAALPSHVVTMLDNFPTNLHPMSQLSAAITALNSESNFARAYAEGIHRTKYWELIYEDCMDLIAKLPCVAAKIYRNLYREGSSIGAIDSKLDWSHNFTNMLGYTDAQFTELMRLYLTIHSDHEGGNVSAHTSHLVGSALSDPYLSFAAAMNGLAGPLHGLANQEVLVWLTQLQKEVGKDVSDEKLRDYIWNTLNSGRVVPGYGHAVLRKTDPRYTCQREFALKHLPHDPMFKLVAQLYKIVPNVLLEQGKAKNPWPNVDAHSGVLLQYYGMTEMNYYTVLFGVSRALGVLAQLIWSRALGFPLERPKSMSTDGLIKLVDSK
Method: as §1, §3, §4, §5, §7

[4] = target: T4, human apolactoferrin (HLF) (Homo sapiens, UniProt P02788); test: HLF aggregation (turbidity at 360 nm) induced by DTT; settings: HLF 0.4 mg/mL, 43° C., DTT, head 10,000×, standard deviation in parenthesis
T4 construct: purchased Sigma
T4 sequence (P02788 20-710): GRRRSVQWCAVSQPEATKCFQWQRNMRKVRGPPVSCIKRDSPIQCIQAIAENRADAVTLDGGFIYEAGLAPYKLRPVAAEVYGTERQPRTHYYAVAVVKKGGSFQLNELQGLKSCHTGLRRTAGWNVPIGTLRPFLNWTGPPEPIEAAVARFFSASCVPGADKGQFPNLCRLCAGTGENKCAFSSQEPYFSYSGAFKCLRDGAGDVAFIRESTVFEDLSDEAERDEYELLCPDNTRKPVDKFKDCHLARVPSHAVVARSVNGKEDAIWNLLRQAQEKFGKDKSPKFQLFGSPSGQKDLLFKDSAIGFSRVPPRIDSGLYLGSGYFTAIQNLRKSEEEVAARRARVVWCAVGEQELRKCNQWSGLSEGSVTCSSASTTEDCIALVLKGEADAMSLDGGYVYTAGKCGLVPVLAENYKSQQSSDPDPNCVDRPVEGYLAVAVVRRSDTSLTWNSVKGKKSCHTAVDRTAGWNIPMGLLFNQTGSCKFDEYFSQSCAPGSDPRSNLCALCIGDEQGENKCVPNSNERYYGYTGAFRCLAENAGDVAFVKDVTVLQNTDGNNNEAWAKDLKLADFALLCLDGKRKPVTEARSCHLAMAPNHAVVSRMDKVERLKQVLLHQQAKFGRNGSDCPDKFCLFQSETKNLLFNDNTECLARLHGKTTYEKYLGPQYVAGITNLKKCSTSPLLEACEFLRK
Method: as §1, §2, §3, §4, §5, §6

[5] = target: T5, chicken egg white lysozyme (Gallus gallus, UniProt P00698); test: Lysozyme aggregation (turbidity at 360 nm) induced by DTT; settings: Lysozyme 0.4 mg/mL, 25° C., DTT; compound 1,000×; standard deviation in parenthesis
T5 construct: chicken egg white lysozyme [Sigma]; purchased Sigma; host or cells: egg white
T5 sequence (P00698 19-147): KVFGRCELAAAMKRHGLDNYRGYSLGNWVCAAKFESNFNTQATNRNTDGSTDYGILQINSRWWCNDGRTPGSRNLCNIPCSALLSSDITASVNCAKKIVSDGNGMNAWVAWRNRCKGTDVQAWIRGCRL
Method: as §1, §2, §3, §4, §5, §6

bovine alpha-lactalbumin = target: T6, bovine alpha-lactalbumin (Bos taurus, UniProt P00711); test: Alpha-lactalbumin aggregation (turbidity at 360 nm) induced by DTT; settings: α Lactalbumin 0.4 mg/mL, 37° C., DTT; compound 1,000×; standard deviation in parenthesis
T6 construct: purchased Sigma
T6 sequence (P00711 20-142): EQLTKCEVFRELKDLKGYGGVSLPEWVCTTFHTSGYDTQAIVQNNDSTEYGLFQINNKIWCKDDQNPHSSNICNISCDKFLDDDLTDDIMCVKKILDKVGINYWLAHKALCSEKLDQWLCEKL
Method: as §1, §2, §3, §4, §5, §6

[6] = target: T7, porcine somatotropin (pST) (Sus scrofa, UniProt P01248); test: Porcine somatotropin aggregation (turbidity at 360 nm) with PEG 8000; settings: pST 1.27 mg/mL, 60° C., standard deviation in parenthesis
T7 construct: purchased Pfizer, Inc., Groton, Conn., USA (provided, not bought)
T7 sequence (P01248 27-216): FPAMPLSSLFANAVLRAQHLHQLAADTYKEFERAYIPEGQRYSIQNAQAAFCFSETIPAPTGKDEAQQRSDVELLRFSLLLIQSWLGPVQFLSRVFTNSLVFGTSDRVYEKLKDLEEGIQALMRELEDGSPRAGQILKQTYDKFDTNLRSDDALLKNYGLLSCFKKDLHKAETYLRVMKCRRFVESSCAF
Method: as §1, §2, §3, §4, §5, §6

[7] = compound 10,000X molar excess, Infinite = complete inhibition of aggregation over one hour
[8] = compound 1,000X, standard deviation in parenthesis

Molecule	inhibition of ADH aggregation, in words ([1]; FIG. 1)	inhibition index ([2]; compound 1,000×)	inhibition index ([2]; compound 10,000×)	inhibition index [1, 7]	inhibition index (Bovine insulin)	inhibition index ([3]; compound 10,000X)	inhibition index ([3]; compound 50,000X)	inhibition index ([4]; second HLF column)	inhibition index [5]	inhibition index (bovine alpha-lactalbumin)	inhibition index ([6]; compound 100X)	inhibition index ([6]; compound 2,000X)	inhibition index [1, 8]	inhibition index ([3]; compound 1,000X)	inhibition index ([4]; first HLF column)	inhibition of citrate synthase aggregation, in words [3]
[Cl-].[Na+] [NaCl]	negligible effect on aggregation	–	–	–	–	–	–	–	–	–	–	–	–	–	–	–
N.O=CO [ammonium formate]	–	0.9 (0.1)	1.3 (0.3)	1.2 (0.1)	1.2 (0.5)	0.6 (0.0)	1.2 (0.3)	5.8 (1.1)	1.5 (0.3)	0.8 (0.3)	–	–	–	–	–	–
O=C(O)CCCCCCCC(=O)O [azelaate, azelaic acid]	–	1.9 (0.2)	6.1 (2.6)	–	1.5 (0.4)	0.7 (0.6)	4.4 (1.8)	1455.0	1.0 (0.2)	2.3 (0.6)	0.6 (0.0)	1.3 (0.3)	–	–	–	–
Cl.N=C(N)N [guanidine HCl, guanidine hydrochloride]	–	1.2 (0.2)	2.8 (0.9)	0.2 (0.1)	0.9 (0.4)	0.6 (0.4)	0.4 (0.1)	0.9 (0.1)	0.9 (0.2)	1.7 (0.6)	–	–	–	–	–	–
CH3—NH2-(Glu)^−-(Gly)n-(Glu)^−-COO^− [CH3—NH2—(E)^−—(G)2—(E)^−—COO^−]	–	2.5 (0.6)	–	–	1.0 (0.2)	–	–	–	0.8 (0.4)	0.4 (0.2)	–	–	1.1 (0.1)	0.9 (0.2)	1.7 (0.2)	–
CH3—NH2-(Glu)^−-(Gly)n-(Glu)^−-COO^− [CH3—NH2—(E)^−—(G)4—(E)^−—COO^−]	–	1.6 (0.2)	–	–	1.4 (0.6)	–	–	–	0.9 (0.3)	0.7 (0.4)	–	–	1.4 (0.1)	0.7 (0.1)	1.7 (0.3)	–
CH3—NH2-(Glu)^−-(Gly)n-(Glu)^−-COO^− [CH3—NH2—(E)^−—(G)5—(E)^−—COO^−]	–	12.3 (0.4)	–	–	1.3 (0.1)	–	–	–	0.1 (0.1)	–	–	–	1.2 (0.1)	0.6 (0.1)	1.6 (0.1)	–
Glu-Lys	–	1.6 (0.3)	11.0 (3.0)	18.4	1.0 (0.1)	1.6 (0.2)	21.5	44.5	1.0 (0.4)	1.0 (0.1)	–	–	1.7 (0.1)	0.8 (0.2)	9.8 (0.3)	Potent inhibitors
^+NH3-(Lys)^+-(Gly)n-(Lys)^+-CONH2 [^+NH3—(K)^+—(G)1—(K)^+—CONH2]	–	2.3 (0.4)	–	–	0.9 (0.1)	–	–	–	0.9 (0.2)	0.5 (0.2)	–	–	1.2 (0.1)	1.0 (0.3)	1.5 (0.2)	–
^+NH3-(Lys)^+-(Gly)n-(Lys)^+-CONH2 [^+NH3—(K)^+—(G)3—(K)^+—CONH2]	–	1.5 (0.4)	–	–	0.9 (0.3)	–	–	–	1.2 (0.7)	0.8 (0.1)	–	–	1.2 (0.1)	0.6 (0.1)	2.1 (0.1)	–
